The target in series [1] is T1, Epidermal growth factor receptor (Homo sapiens, UniProt P00533, L858R).
The target in series [2] is T2, Epidermal growth factor receptor (Homo sapiens, UniProt P00533). Format: ADME.
Description: Inhibition of human N-terminal GST-fused EGFR cytoplasmic domain (669 to 1210 residues) expressed in baculovirus using TK-substrate-biotin preincubated for 30 mins followed by substrate addition measured after 25 mins by HTFR assay
For series [3], the target named is T3, Epidermal growth factor receptor (Homo sapiens, UniProt P00533, L858R/T790M).
Series [4] deals with Epidermal growth factor receptor (Homo sapiens), P00533 [T790M]. Description: Covalent binding affinity to EGFR T790M mutant (unknown origin) at 100 uM after 1 hr by mass spectrometric analysis.
In another series the test system is A-431. The experiment in a line: cells. Format: ADME, cell-based. The note with it: Homo sapiens, A-431, 96 h.
The subject of the next series is NCI-H1975. Description: cells. The format is functional, cell-based. The note with it: Homo sapiens, NCI-H1975, 96 h.
Series [5] concerns the target Epidermal growth factor receptor (Homo sapiens, UniProt P00533, C797S/L858R/T790M). Description: Inhibition of human EGFR T790M/C797S/L858R triple mutant preincubated for 20 mins followed by [33P]ATP addition measured after 2 hrs.
Series [6] addresses T1, Epidermal growth factor receptor. The source holds these as a separate data set.
For series [7], the target named is T3, Epidermal growth factor receptor. The source holds these as a separate data set.
The target in series [8] is T2, Epidermal growth factor receptor. The conditions noted are these: read-out: Ratio.
Description: Ratio of Kinact for human N-terminal GST-fused EGFR cytoplasmic domain (669 to 1210 residues) expressed in baculovirus to Ki for human N-terminal GST-fused EGFR cytoplasmic domain (669 to 1210 residues) expressed in baculovirus
For series [9] the target is unchanged. The note with it: for kinact: human.
Description: Inhibition of human N-terminal GST-fused EGFR cytoplasmic domain (669 to 1210 residues) expressed in baculovirus using TK-substrate-biotin incubated for 2 to 90 mins by HTFR assay
A short description of series [10]: Drug degradation in human liver microsomes at 100 uM preincubated for 5 mins with NADPH-regenerating system followed by liver microsomes addition measured after 240 mins by LC-MS analysis. The format is ADME, microsome. The conditions noted are these: read-out: Drug degradation. Background: Liver microsomes are vesicles of endoplasmic reticulum, rich in cytochrome P450 enzymes.

The source made the active and inactive calls. The rule behind the calls is not given here.

This is an account of results in ChEMBL document CHEMBL4011631, “Trisubstituted Pyridinylimidazoles as Potent Inhibitors of the Clinically Resistant L858R/T790M/C797S EGFR Mutant: Targeting of Both Hydrophobic Regions and the Phosphate Binding Site” (J Med Chem, 2017).

For orientation: IC50 means the point on the concentration scale where inhibition reaches its midpoint. In general, EC50 refers to the concentration at which the effect is half-maximal. High values mean weaker potency, low ones greater potency. What is called Ki is the dissociation constant of the complex between target and ligand, obtained from inhibition or displacement. Higher therefore signals lower affinity. The kinact is the maximal first-order rate at which the target is inactivated.

Description for A-431: Antiproliferative activity against human A431 cells harboring wild type EGFR assessed as growth inhibition after 96 hrs by CellTiter-Glo assay

Consider `CCC(=O)Nc1cccc(Nc2cc(-c3[nH]c(SC)nc3-c3ccc(F)cc3)ccn2)c1`, for which the IC50 in series [1] amounted to 6.8 nM; in series [2], 22 nM; in series [3], 93 nM; in series [5] it was 223 nM. Also, the outcome in series [4] was inactive. In addition, the EC50 worked out at 1500 nM with A-431 and 2200 nM with NCI-H1975.

Turning to `C=CC(=O)NCCSc1nc(-c2ccc(F)cc2)c(-c2ccnc(Nc3ccccc3)c2)[nH]1`, the IC50 amounted to 2.2 nM in series [1], 1.6 nM in [2] and 38 nM in series [3]. The EC50 with A-431 was determined as 12000 nM; with NCI-H1975, 2400 nM. Also, the values for the Ki in series [6], in [7] and in [9] were 0.38 nM, 6 nM and 1.6 nM, respectively. Besides, the kinact/KI in [8] was 940000 M⁻¹ s⁻¹. The inactivation rate constant (kinact) in series [9] is 0.0015 s⁻¹.

Regarding `C=CC(=O)Nc1ccc(OC)c(Nc2cc(-c3[nH]c(CCCO)nc3-c3ccc(F)cc3)ccn2)c1`, the half-maximal inhibitory concentration (IC50) was below 1 nM in series [1], below 1 nM in [2], below 1 nM in [3] and 8 nM in series [5]. Further, the results for the 50% effective concentration (EC50) in the series on A-431 and in the series with NCI-H1975 were 4000 nM and 400 nM, respectively. In addition, the metabolised at 4 h, 100 µM in series [10] was determined as 9%. Further, the figures for the inhibitory constant (Ki) in [6], in [7] and in series [9] were 0.03 nM, 0.1 nM and 0.07 nM, respectively. In addition, in series [8], the kinact/KI stood at 1.5e+07 M⁻¹ s⁻¹. The kinact in series [9] is 0.00267 s⁻¹.

Take `C=CC(=O)Nc1cc(Nc2cc(-c3[nH]c(SC)nc3-c3ccc(F)cc3)ccn2)cc(N2CCN(C)CC2)c1`: the half-inhibitory concentration (IC50) in series [1] is below 1 nM; in [2] it was below 1 nM; in series [3] it was below 1 nM; in series [5] it was 11 nM. Besides, the concentration for a half-maximal effect (EC50) was found to be 1400 nM with A-431 and 1100 nM in the series with NCI-H1975. Moreover, the metabolised at 4 h, 100 µM in series [10] came out at 27%.

Take `C=CC(=O)Nc1ccc(OC)c(Nc2cc(-c3[nH]c(SC)nc3-c3ccc(F)cc3)ccn2)c1`: in [4], the outcome was Active. The concentration for a half-maximal effect (EC50) was 4100 nM in the series with A-431 and below 14 nM in the series on NCI-H1975. The metabolised at 4 h, 100 µM in series [10] amounted to 23%.

For `C=CC(=O)Nc1cccc(Nc2cc(-c3[nH]c(SC)nc3-c3ccc(F)cc3)ccn2)c1`, the IC50 in series [1] was below 1 nM; in series [2] it was below 1 nM; in [3] it was 3.3 nM. Besides, the result in series [4] was Active. Moreover, the EC50 with A-431 was found to be 1700 nM; with NCI-H1975, 190 nM.
